Reference: ChEMBL document CHEMBL5726170, “Histone demethylase inhibitors” (2019)

Experiment: JMJD2C Assay: The ability of test compounds to inhibit the activity of JMJD2C was determined in 384-well plate format under the following reaction conditions: 0.3 nM JMJD2C, 300 nM H3K9me3-biotin labeled peptide (Anaspec cat #64360), 2 μM alpha-ketoglutaric acid in assay buffer of 50 mM HEPES, pH7.3, 0.005% Brij35, 0.5 mM TCEP, 0.2 mg/ml BSA, 50 μM sodium L-ascorbate, and 2 μM ammonium iron(II) sulfate. Reaction product was determined quantitatively by TR-FRET after the addition of detection reagent Phycolink Streptavidin-allophycocyanin (Prozyme) and Europium-anti-di-methylated histone H3 lysine 9 (H3K9me2) antibody (PerkinElmer) in the presence of 5 mM EDTA in LANCE detection buffer (PerkinElmer) at a final concentration of 50 nM and 1 nM, respectively.The assay reaction was initiated by the following: 2 μl of the mixture of 900 nM H3K9me3-biotin labeled peptide and 6 μM alpha-ketoglutaric acid with 2 μl of 11-point serial diluted inhibitor in 3% DMSO were added to each well of the plate, followed by the addition of 2 μl of 0.9 nM JMJD2C to initiate the reaction. The reaction mixture was incubated at room temperature for 30 min, and terminated by the addition of 6 μl of 5 mM EDTA in LANCE detection buffer containing 100 nM Phycolink Streptavidin-allophycocyanin and 2 nM Europium-anti-H3K9me2 antibody. Plates were read by EnVisionMultilabel Reader in TR-FRET mode (excitation at 320 nm, emission at 615 nm and 665 nm) after 1 hr incubation at rt. A ratio was calculated (665/615) for each well and fitted to determine inhibition constant (IC50).

| IC50 | Structure (SMILES) |
| --- | --- |
| in the range around 5.5 µM | O=C(O)c1ccncc1NCC1CCCc2c(Oc3ccccc3)cccc21 (centres undefined) |
| in the range around 5.5 µM | O=C(O)c1ccncc1NCC1CCCc2cc(OC(F)(F)F)ccc21 (centres undefined) |
| in the range around 0.55 µM | O=C(O)c1ccncc1NCC1CCOc2cc(F)ccc21 (centres undefined) |
| in the range around 5.5 µM | O=C(O)c1ccncc1NCC1CCCc2c(OCC3CC3)cccc21 (centres undefined) |
